{"source": "patent US20240374626A1", "about": "“METHODS OF ENHANCING MILK PRODUCTION IN LACTATING MAMMALIAN SUBJECTS” (priority 2023, published 2024)", "system": "MG alveoli", "experiment": "Contralateral intraductal injection: milk staining (IHC) integrated density per alveolus", "assay_type": "in vivo, mouse", "conditions": "Mk-1775 IDI at PD16.5 vs contralateral DMSO, LD5 MGs", "description": "Nulliparous analysis was performed using adult (10-12-week-old) female mice. For timed pregnancies and lactation analysis, CD-1 pregnant adult females were obtained from Charles Rivers. Embryos were examined at the time of mammary gland harvesting to confirm pregnancy state. […] Plugged mice were considered to be PD0.5 on the day of the observed plug. All females used in this study were age matched.\nMice were anesthetized with isoflurane (VetOne, 501017) Prior to intraductal injections, hair was removed from around the nipples using Nair hair remover. Injections into the duct of the nipple were performed with 33 G needles (Hamilton, 7803-05) and a volume of 40 μl per gland. […]\nMammary gland tissue was fixed in 10% neutral buffered formalin (EMD Millipore, MR0458682) at 4° C. overnight. […] Incubation with secondary antibodies [(donkey anti-Rat 647 (Thermo-Invitrogen; A48272) and donkey anti-Rabbit 488 (Thermo-Invitrogen; A32790)] was performed for 2 h at room temperature. Sections were washed with 0.3% triton in PBS for 30 min (×3) at room temperature and mounted using flouromount-G (Southern Biotech, 0100-01). Image acquisition was performed using Zeiss Axio Imager Microscope. Macros were generated to quantify lumen milk integrated density per alveolus using Image J.", "data": [{"smiles": "C=CCn1c(=O)c2cnc(Nc3ccc(N4CCN(C)CC4)cc3)nc2n1-c1cccc(C(C)(C)O)n1", "note": "[Mk-1775]", "values": [{"measurement": "decrease in milk production (IHC, milk integrated density per alveolus)", "value": 21, "unit": "%"}]}]}
